Results taken from US4281009A, “Hydantoin derivatives” (Nippon Zoki Pharmaceutical Co., Ltd., priority 1978, dated 1981).

Legend:
dd-strain male mice [1] = assay: Inhibitory effect on Tremorine-induced tremor; format: in vivo; conditions: 100 mg/kg intraperitoneal; tremorine 10 mg/Kg
Protocol: 9. Inhibitory effect on Tremorine-induced tremor:
Groups of mice each comprising 10-40 dd-strain male mice were used. Effect of the compounds of the present invention on tremor caused by tremorine was examined. The compounds of the present invention or DPH was given intraperitoneally. 45 minutes thereafter, 10 mg/Kg of tremorine was given intraperitoneally for inducing the tremor.

dd-strain male mice [2] = assay: Inhibitory effect on exploratory movements; format: in vivo; conditions: after 60 minutes
Protocol: 4.2. Inhibitory effect on exploratory movements:
Groups each comprising 16-35 dd-strain male mice were used. The compounds of the present invention were given intraperitoneally. After 60 minutes, exploratory movements for 15 minutes were measured with an exploratory movement recorder by a method of Tokyo Kyoiku University.

SART stress mice = assay: Inhibitory effects on increase of heart rate and elongation of QRS-time in SART stress mice; format: in vivo, mice (dd-strain male); conditions: 9th day, Average ± S.D.
Protocol: SART stress animals used in the tests described below were raised according to a method of Kita, et al. [Folia Pharmacol. Japan.: 71, 195-210 (1975)].
2. Inhibitory effects on increase of heart rate and elongation of QRS-time in stress animals:
Groups of mice each comprising 11 or 12 dd-strain male mice were divided into three groups in the same manner as above and heart rate and QRS-time were determined on the 9th day after initiation of the tests.

[3] = test system: normal rats and SART stress rats; assay: Analgesic effect, pain induced by Bradykinin; format: in vivo, rats (SD-strain male)
Protocol: 5.4 Method of measuring a pain induced by Bradykinin:
Groups each comprising 4-8 SD-strain male normal rats and SART stress rats to which SART stress had been applied for 4 days were used. The tests were carried out according to the method of Deffenu et al. [Deffenu, G., Pegrassi, L., & Fumachi. B.; J. Pharm. Pharmacol.; 18, 135 (1966)] and Blane method [Blane, G. F.; J. Pharm. Pharmacol.; 19, 367 (1967)]. The effect judged was shown by ratio of the rats in which the effect was recognized according to the method of Abe, et al. [Abe, Kaneko & Takagi; Folia Pharmacol. Japon.; 67, 9-14 (1971)].

[4] = SART stress rats, intraperitoneal 100 mg/kg
[5] = SART stress rats, peroral 100 mg/kg
[6] = normal rats, intraperitoneal 100 mg/kg

| SMILES | Inhibitory effect on Tremorine-induced tremor (dd-strain male mice [1]) | Inhibitory effect on exploratory movements (dd-strain male mice [2]; 50 mg/kg intraperitoneal) | Inhibitory effect on exploratory movements (dd-strain male mice [2]; 100 mg/kg intraperitoneal) | Inhibitory effect on exploratory movements (dd-strain male mice [2]; 125 mg/kg intraperitoneal) | Heart rate (SART stress mice; 50 mg/kg/day) | QRS-time (SART stress mice; 50 mg/kg/day) | Analgesic effect [3, 4] | Analgesic effect [3, 5] | Analgesic effect [3, 6] | Analgesic effect ([3]; normal rats, peroral 100 mg/kg) | Heart rate (SART stress mice; 37.5 mg/kg/day) | QRS-time (SART stress mice; 37.5 mg/kg/day) | Heart rate (SART stress mice; 100 mg/kg/day) | QRS-time (SART stress mice; 100 mg/kg/day) |
| --- | --- | --- | --- | --- | --- | --- | --- | --- | --- | --- | --- | --- | --- | --- |
| COc1ccc(C2(c3ccc(OC)c(Cl)c3)NC(=O)NC2=O)cc1 (stereo not shown) [Compound 2, 5-(3-chloro-4-methoxyphenyl)-5-(4-methoxyphenyl)hydantoin] | 38% | 29.0% | 38.8% | 47.8% | 698 ± 42 min⁻¹ | 12.9 ± 0.8 1/1000 sec | 75% | 30% | 66.7% | 10% |  |  |  |  |
| O=C1NC(=O)C(c2ccc(O)cc2)(c2ccc(O)cc2)N1 [Compound 4, 5,5-Bis(4-hydroxyphenyl)hydantoin] | 54% | 30.1% | 54.5% | 61.3% |  |  | 100% | 40% | 100% | 0% | 683 ± 61 min⁻¹ | 12.2 ± 0.8 1/1000 sec |  |  |
| O=C1NC(=O)C(c2cc(O)c(O)c(O)c2)(c2cc(O)c(O)c(O)c2)N1 [Compound 36, 5,5-Bis(3,4,5-trihydroxyphenyl)hydantoin] |  | 30.6% | 36.7% |  |  |  | 50% | 33.3% | 33.3% | 10% |  |  | 737 ± 65 min⁻¹ | 13.8 ± 1.2 1/1000 sec |
